The results in this text go back to publication PMC3867360, “Membrane Interactions of S100A12 (Calgranulin C)” (PLoS ONE, 2013).

The assay addresses T1, porcine S100A12 (Calgranulin C) (Sus scrofa, UniProt P80310).
T1 construct: pET28a-S100A12 in E. coli BL21(DE3); N-terminal or other His-tag cut with thrombin; non-covalent antiparallel homodimer; apo form in SPR
T1 sequence (P80310 1-92 limits assumed): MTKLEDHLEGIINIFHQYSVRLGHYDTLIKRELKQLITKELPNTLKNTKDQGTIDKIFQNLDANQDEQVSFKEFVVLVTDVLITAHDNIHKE
Description: SPR, Biacore X, L1 sensorchip, immobilized LUVs. The format is binding. The source says: SPR, Biacore X, L1 sensorchip, immobilized LUVs on porcine S100A12 (Calgranulin C)
(In general: SPR reads the build-up and loss of mass on a sensor chip optically.)

As a reminder, the Kd is a measure of binding affinity in units of concentration. A high value points to lower affinity.

`CCCCCCCCCCCCCCCC(=O)OC[C@H](COP(=O)(O)OCC(O)CO)OC(=O)CCCCCCCCCCCCCCC` (some centres unmarked) [DPPG, 1,2-dipalmitoyl-sn-glycero-3-phosphoglycerol] registered a Kd of 0.63 µM.

As for `CCCCCCCCCCCCCCCC(=O)OC[C@H](COP(=O)([O-])OCC[N+](C)(C)C)OC(=O)CCCCCCCCCCCCCCC` [DPPC, 1,2-dipalmitoyl-sn-glycero-3-phosphocholine], binding was characterised by a dissociation constant (Kd) of 5.9 µM.
